{"source": "patent US20230201290A1", "about": "“TGF-BETA INHIBITION, AGENTS AND COMPOSITION THEREFOR” (GMP BIOTECHNOLOGY LIMITED, priority 2020, published 2023)", "key": {"[1]": {"tested_on": "Vero 76 cells"}, "[2]": {"tested_on": "SARS-COV-2 USA_WA1/2020"}, "[3]": {"tested_on": "colorectal cancer", "assay": "Phase I/II study P001: patients with colorectal cancer", "type": "in vivo, human", "details": "all colorectal patients independent of dose and schedule", "from_the_text": "(§1) P001 is a completed Phase I/II dose escalation study. Primary objective is the determination of the MTD as well as the DLT of 2 cycles as core treatment and up to 8 optional extension cycles of trabedersen administered i.v. for 4 or 7 d every other week, as described in the following. The study followed a classical cohort design with 3 evaluable patients per cohort. Patients treated with the 1st schedule received trabedersen continuously for 7 d, followed by a treatment-free interval of 7 d for each treatment cycle (7-d-on, 7-d-off). After the MTD had been reached for this schedule, a 2nd schedule of 4 d trabedersen administration, followed by a treatment-free interval of 10 d for each treatment cycle was started (4-d-on, 10-d-off). In this treatment schedule the MTD has not been reached.\nTrabedersen was administered as i.v. continuous infusion for 4 or 7 days every other week via an implanted subcutaneous port system connected to a portable pump and with a flow rate of 0.8 mL/h. […]\n(§2) The overall survival is calculated for all patients as the survival time from the onset of treatment with study medication to death due to any cause and analyzed with the Kaplan-Meier method.\nOne patient with AJCC Stage IV colorectal cancer treated in the 240 mg/m^2/day cohort of the 7-day-on, 7-day-off schedule was assessed with stable disease and survived for 7.3 months. […]"}, "[4]": {"tested_on": "C8161 human melanoma", "assay": "Orthotopic C8161 human melanoma model", "details": "group 2: 16 mg/kg SC 3 times/week"}, "[5]": {"tested_on": "advanced pancreatic cancer", "assay": "Phase I/II study P001: patients with pancreatic cancer", "type": "in vivo, human", "from_the_text": "as §1\nTrabedersen was administered as i.v. continuous infusion for 4 or 7 days every other week via an implanted subcutaneous port system connected to a portable pump and with a flow rate of 0.8 mL/h. The core treatment consisted of 2 treatment cycles. Up to 8 optional extension cycles were administered in case of clinical benefit.\nas §2\nAltogether 21 patients with pancreatic cancer were treated during dose escalation.\nThere was no clear dose-response relationship, neither in the 7-days-on, 7-days-off schedule nor in the 4-days-on, 10-days-off schedule. A similar pattern is seen when the 5 patients with malignant melanoma and 5 patients with colorectal cancer treated during dose-escalation are also included."}}, "data": [{"substance": "cggcatgtct attttgta (antisense CGGCATGTCTATTTTGTA; chemistry not given here) [OT-101, synthetic antisense oligodeoxynucleotide against TGF-beta2]", "values": [{"measurement": "CC50", "setting": "[1]", "result": "> 1000", "unit": "µg/mL"}, {"measurement": "Toxicity at the highest dose", "setting": "[1]; 1000 μg/ml", "result": "not toxic"}, {"measurement": "SI=CC50/EC50", "setting": "[2]; SARS-CoV-2", "result": ">500"}, {"measurement": "SI (CC50/EC50)", "setting": "[2]; SARS-CoV-2, Vero 76 cells", "result": ">500"}, {"measurement": "EC50: 50% effective antiviral concentration", "setting": "[2]; SARS-CoV-2 USA_WA1/2020, Vero 76, CPE neutral red, day 5", "result": 2.0, "unit": "µg/mL"}, {"measurement": "EC50", "setting": "[2]; read-out: EC50 (value in brackets), SARS-CoV-2 USA_WA1/2020, Vero 76", "result": 330, "unit": "nM"}, {"measurement": "mOS", "setting": "[3]", "result": 3.0, "unit": "months"}, {"measurement": "Tumor growth suppressed versus control group 1 on day 42", "setting": "[4]", "result": 2, "unit": "%"}, {"measurement": "mOS", "setting": "[5]; 2nd-line therapy, independent of dose and schedule", "result": 8.9, "unit": "months"}, {"measurement": "mOS", "setting": "[5]; 2nd-line, 140 mg/m^2/day 4-on/10-off, no subsequent chemotherapy", "result": 2.6, "unit": "months"}, {"measurement": "mOS", "setting": "[5]; 2nd-line, 140 mg/m^2/day 4-on/10-off, with subsequent chemotherapy", "result": 16.9, "unit": "months"}, {"measurement": "mOS", "setting": "[5]; 2nd-line, 140 mg/m^2/day, 4-days-on, 10-days-off", "result": 14.5, "unit": "months"}, {"measurement": "Median Overall Survival, Patients with pancreatic cancer", "setting": "[5]; 4-days-on, 10-days-off, 140 mg/m^2/day", "result": 14.5, "unit": "months"}, {"measurement": "Median Overall Survival, Patients with pancreatic cancer", "setting": "[5]; 4-days-on, 10-days-off, 140 mg/m^2/day (additional patients)", "result": 3.3, "unit": "months"}, {"measurement": "Median Overall Survival, Patients with pancreatic cancer", "setting": "[5]; 4-days-on, 10-days-off, 190 mg/m^2/day", "result": 6.2, "unit": "months"}, {"measurement": "Median Overall Survival, Patients with pancreatic cancer", "setting": "[5]; 4-days-on, 10-days-off, 250 mg/m^2/day", "result": 7.3, "unit": "months"}, {"measurement": "Median Overall Survival, Patients with pancreatic cancer", "setting": "[5]; 4-days-on, 10-days-off, 330 mg/m^2/day", "result": 2.4, "unit": "months"}, {"measurement": "Median Overall Survival, Patients with pancreatic cancer", "setting": "[5]; 7-days-on, 7-days-off, 40 mg/m^2/day", "result": 6.9, "unit": "months"}, {"measurement": "Median Overall Survival, Patients with pancreatic cancer", "setting": "[5]; 7-days-on, 7-days-off, 80 mg/m^2/day", "result": 4.6, "unit": "months"}, {"measurement": "Median Overall Survival, Patients with pancreatic cancer", "setting": "[5]; 7-days-on, 7-days-off, 160 mg/m^2/day", "result": 3.9, "unit": "months"}, {"measurement": "Median Overall Survival, Patients with pancreatic cancer", "setting": "[5]; 7-days-on, 7-days-off, 240 mg/m^2/day", "result": 5.5, "unit": "months"}, {"measurement": "mOS", "setting": "[5]; all 35 pancreatic carcinoma patients, independent of dose and schedule", "result": 4.9, "unit": "months"}, {"measurement": "mOS", "setting": "[5]; dose escalation, 4-days-on, 10-days-off schedule", "result": 9.3, "unit": "months"}, {"measurement": "mOS", "setting": "[5]; dose escalation, 7-days-on, 7-days-off schedule", "result": 5.7, "unit": "months"}]}]}
